Test results taken from patent US11613525B2 (CTXT PTY LIMITED, priority 2018, dated 2023).

Experiments:
human STING (HAQ) [1] = biological target: T1, human STING (HAQ) (Homo sapiens, UniProt Q86WV6, G230A/H232R/R293Q); experiment: biochemical; assay type: binding; conditions: for DSF huSTING (HAQ) ΔTm (° C.): 1 μM protein, compound at 100 μM
Protocol: (§1) DSF monitors thermal unfolding of protein in the presence of a fluorescent dye and is typically performed using a real-time PCR instrument. The temperature at which a protein unfolds is measured by an increase in the fluorescence of a dye with affinity for hydrophobic parts of the protein that are gradually exposed during unfolding. The fluorescence of the dye is quenched in aqueous environments, but when the dye associates with hydrophobic sites on the unfolded protein, its fluorescence increases. The fluorescence intensity is plotted as a function of the temperature, generating a sigmoidal curve that can be described by a two-state transition. The inflection point of the transition curve (Tm) is calculated using simple equations such as that of Boltzman.
(§2) Sealed plates were then placed into a Bio-Rad CFX96/C1000 thermocycler and FRET scanning mode (λ^excitation of 490 nm and reads at λ^emission of 570 nm) was used to measure fluorescence intensity. […] The melting point (Tm) obtained for STING protein alone was subtracted from Tm obtained for protein incubated with ligand to generate ΔTm values listed in the table below.
(§3) These additional compounds were tested as described above, however the protein concentration was 2 μM.

huSTING (WT) [2] = biological target: T2, huSTING (WT) (Homo sapiens (Human), UniProt Q86WV6, H232R); experiment: Differential scanning fluorimetry (DSF), huSTING (WT); assay type: binding; conditions: read-out: DSF huSTING (WT) ΔTm (° C.)
Protocol: as §1, §2, §3
Target sequence in this assay (Q86WV6 other isoform, or with tags, fused parts or gaps, stated change not applied): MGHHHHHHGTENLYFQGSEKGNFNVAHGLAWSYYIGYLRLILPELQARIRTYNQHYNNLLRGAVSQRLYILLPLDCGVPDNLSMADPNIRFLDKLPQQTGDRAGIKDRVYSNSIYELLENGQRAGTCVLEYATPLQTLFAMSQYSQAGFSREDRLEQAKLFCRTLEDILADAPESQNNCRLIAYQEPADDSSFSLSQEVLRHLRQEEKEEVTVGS

huSTING (HAQ) = huSTING (HAQ) (Homo sapiens (Human), UniProt Q86WV6, G230A/H232R/R293Q/R71H); experiment: THP-1 reporter cell line assay, THP-1 STING Lucia ISG cells; assay type: cell-based; conditions: THP-1 STING Lucia ISG cells; 24 h; top concentration 50 μM; read-out: Cellular EC50 huSTING (HAQ)
huSTING (HAQ), sequence (Q86WV6 whole entry R71H/G230A/H232R/R293Q): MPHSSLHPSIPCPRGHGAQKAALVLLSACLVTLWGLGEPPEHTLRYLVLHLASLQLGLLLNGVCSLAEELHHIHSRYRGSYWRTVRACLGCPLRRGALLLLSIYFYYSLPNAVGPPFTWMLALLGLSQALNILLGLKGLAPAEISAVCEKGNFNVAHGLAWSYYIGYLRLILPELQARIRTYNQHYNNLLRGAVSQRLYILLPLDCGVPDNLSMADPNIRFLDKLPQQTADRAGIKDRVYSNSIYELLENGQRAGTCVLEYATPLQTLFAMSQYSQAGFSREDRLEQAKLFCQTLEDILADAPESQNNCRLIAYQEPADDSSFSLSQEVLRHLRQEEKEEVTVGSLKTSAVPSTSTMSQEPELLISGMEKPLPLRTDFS

huSTING (WT) [3] = biological target: T2, huSTING (WT); experiment: THP-1 reporter cell line assay, THP-1-Dual KI-hSTING-R232 cells; assay type: cell-based; conditions: read-out: Cellular EC50 huSTING (WT)
Target sequence in this assay (Q86WV6 whole entry H232R): as the sequence (Q86WV6 whole entry R71H/G230A/H232R/R293Q) above, with H71R, A230G, Q293R counted along it

human STING (HAQ) [4] = biological target: T1, human STING (HAQ); conditions: read-out: SPR (HAQ) KD; 25° C.

T1 sequence (Q86WV6 whole entry G230A/H232R/R293Q, looked up): as the sequence (Q86WV6 whole entry R71H/G230A/H232R/R293Q) above, with H71R counted along it

## NC(=O)c1ccc(OCc2c(C(=O)O)sc3cccc(Cl)c23)cc1Br [Example 64, 3-((3-Bromo-4-carbamoylphenoxy)methyl)-4-chlorobenzo[b]thiophene-2-carboxylic acid]
Human STING (HAQ) [1]
  DSF huSTING (HAQ) ΔTm (° C.): 6.79 °C
huSTING (WT) [2]
  ΔTm at 100 µM: 2.73 °C
huSTING (HAQ)
  EC50: > 50 µM
huSTING (WT) [3]
  EC50: > 50 µM
Human STING (HAQ) [4]
  Kd: 6.2 µM

## NC(=O)c1ccc(OCc2c(C(=O)O)sc3ccc(F)c(F)c23)cc1 [Example 16, 3-((4-Carbamoylphenoxy)methyl)-4,5-difluorobenzo[b]thiophene-2-carboxylic acid]
Human STING (HAQ) [1]
  DSF huSTING (HAQ) ΔTm (° C.): 10.12 °C
huSTING (WT) [2]
  ΔTm at 100 µM: 3.49 °C
huSTING (HAQ)
  EC50: > 50 µM
huSTING (WT) [3]
  EC50: > 50 µM
Human STING (HAQ) [4]
  Kd: 2.19 µM

## NC(=O)c1ccc(OCc2c(C(=O)O)sc3cccc(C(F)(F)F)c23)cc1 [Example 36, 3-((4-Carbamoylphenoxy)methyl)-4-(trifluoromethyl)benzo[b]thiophene-2-carboxylic acid]
Human STING (HAQ) [1]
  DSF huSTING (HAQ) ΔTm (° C.): 12.31 °C
huSTING (WT) [2]
  ΔTm at 100 µM: 5.96 °C
huSTING (HAQ)
  EC50: > 50 µM
huSTING (WT) [3]
  EC50: > 50 µM
Human STING (HAQ) [4]
  Kd: 1.33 µM

## NC(=O)c1ccc(OCc2c(C(=O)O)sc3cccc(Cl)c23)cn1 [Example 46, 3-(((6-Carbamoylpyridin-3-yl)oxy)methyl)-4-chlorobenzo[b]thiophene-2-carboxylic acid]
Human STING (HAQ) [1]
  DSF huSTING (HAQ) ΔTm (° C.): 7.26 °C
huSTING (WT) [2]
  ΔTm at 100 µM: 1.77 °C
huSTING (HAQ)
  EC50: > 50 µM
huSTING (WT) [3]
  EC50: > 50 µM
Human STING (HAQ) [4]
  Kd: 9.7 µM

## NC(=O)c1ccc(OCc2c(C(=O)O)sc3cccc(Cl)c23)cc1F [Example 26, 3-((4-Carbamoyl-3-fluorophenoxy)methyl)-4-chlorobenzo[b]thiophene-2-carboxylic acid]
Human STING (HAQ) [1]
  DSF huSTING (HAQ) ΔTm (° C.): 10.82 °C
huSTING (WT) [2]
  ΔTm at 100 µM: 3.79 °C
huSTING (HAQ)
  EC50: > 50 µM
huSTING (WT) [3]
  EC50: > 50 µM
Human STING (HAQ) [4]
  Kd: 1.6 µM

## NC(=O)c1ccc(OCc2c(C(=O)O)sc3cccnc23)cc1 [Example 24, 3-((4-Carbamoylphenoxy)methyl)thieno[3,2-b]pyridine-2-carboxylic acid]
Human STING (HAQ) [1]; read-out: DSF huSTING (HAQ) ΔTm (° C.)
  ΔTm at 100 µM: 0.6 °C
huSTING (WT) [2]
  ΔTm at 100 µM: -0.35 °C
huSTING (HAQ)
  EC50: > 50 µM
huSTING (WT) [3]
  EC50: > 50 µM
Human STING (HAQ) [4]
  Kd: > 10000 µM

## NC(=O)c1cc(Cl)c(OCc2c(C(=O)O)sc3cccc(Cl)c23)c(Cl)c1 [Example 40, 3-((4-Carbamoyl-2,6-dichlorophenoxy)methyl)-4-chlorobenzo[b]thiophene-2-carboxylic acid]
Human STING (HAQ) [1]
  DSF huSTING (HAQ) ΔTm (° C.): 9.91 °C
huSTING (WT) [2]
  ΔTm at 100 µM: 3.66 °C
huSTING (HAQ)
  EC50: > 50 µM
huSTING (WT) [3]
  EC50: 39.7 µM
Human STING (HAQ) [4]
  Kd: 2.8 µM

## NC(=O)c1ccc(OCc2c(C(=O)O)sc3cccc(F)c23)c(F)c1 [Example 59, 3-((4-carbamoyl-2-fluorophenoxy)methyl)-4-fluorobenzo[b]thiophene-2-carboxylic acid]
Human STING (HAQ) [1]
  DSF huSTING (HAQ) ΔTm (° C.): 7.31 °C
huSTING (WT) [2]
  ΔTm at 100 µM: 0.54 °C
huSTING (HAQ)
  EC50: > 50 µM
huSTING (WT) [3]
  EC50: > 50 µM
Human STING (HAQ) [4]
  Kd: 15.2 µM

## NC(=O)c1ccc(OCc2c(C(=O)O)sc3cc(F)cc(F)c23)cc1 [Example 32, 3-((4-Carbamoylphenoxy)methyl)-4,6-difluorobenzo[b]thiophene-2-carboxylic acid]
Human STING (HAQ) [1]
  DSF huSTING (HAQ) ΔTm (° C.): 7.23 °C
huSTING (WT) [2]
  ΔTm at 100 µM: 0.63 °C
huSTING (HAQ)
  EC50: > 50 µM
huSTING (WT) [3]
  EC50: > 50 µM
Human STING (HAQ) [4]
  Kd: 7.75 µM

## NC(=O)c1ccc(OCc2c(C(=O)O)sc3ccccc23)cc1 [Example 6, 3-((4-Carbamoylphenoxy)methyl)benzo[b]thiophene-2-carboxylic acid]
Human STING (HAQ) [1]
  DSF huSTING (HAQ) ΔTm (° C.): 3.33 °C
huSTING (WT) [2]
  ΔTm at 100 µM: -1.15 °C
huSTING (HAQ)
  EC50: > 50 µM
huSTING (WT) [3]
  EC50: > 50 µM
Human STING (HAQ) [4]
  Kd: 90 µM

## COc1cc(C(N)=O)cc(OC)c1OCc1c(C(=O)O)sc2cccc(Cl)c12 [Example 42, 3-((4-Carbamoyl-2,6-dimethoxyphenoxy)methyl)-4-chlorobenzo[b]thiophene-2-carboxylic acid]
Human STING (HAQ) [1]
  DSF huSTING (HAQ) ΔTm (° C.): 2.83 °C
huSTING (WT) [2]
  ΔTm at 100 µM: -0.64 °C
Human STING (HAQ) [4]
  Kd: 80.5 µM

## NC(=O)c1ccc(CCc2c(C(=O)O)sc3cccc(F)c23)cc1 [Example 88, 3-(4-Carbamoylphenethyl)-4-fluorobenzo[b]thiophene-2-carboxylic acid]
Human STING (HAQ) [1]
  DSF huSTING (HAQ) ΔTm (° C.): 0.97 °C
huSTING (WT) [2]
  ΔTm at 100 µM: -1.07 °C
huSTING (HAQ)
  EC50: > 50 µM
huSTING (WT) [3]
  EC50: > 50 µM
Human STING (HAQ) [4]
  Kd: 533 µM

## NC(=O)c1cc(F)c(OCc2c(C(=O)O)sc3cccc(F)c23)c(Br)c1 [Example 56, 3-((2-Bromo-4-carbamoyl-6-fluorophenoxy)methyl)-4-fluorobenzo[b]thiophene-2-carboxylic acid]
Human STING (HAQ) [1]
  DSF huSTING (HAQ) ΔTm (° C.): 4.48 °C
huSTING (WT) [2]
  ΔTm at 100 µM: -1.29 °C
huSTING (HAQ)
  EC50: > 50 µM
huSTING (WT) [3]
  EC50: > 50 µM
Human STING (HAQ) [4]
  Kd: 29 µM

## COc1cccc2sc(C(=O)O)c(COc3ccc(C(N)=O)cc3)c12 [Example 34, 3-((4-Carbamoylphenoxy)methyl)-4-methoxybenzo[b]thiophene-2-carboxylic acid]
Human STING (HAQ) [1]
  DSF huSTING (HAQ) ΔTm (° C.): 10.07 °C
huSTING (WT) [2]
  ΔTm at 100 µM: 3.76 °C
huSTING (HAQ)
  EC50: > 50 µM
huSTING (WT) [3]
  EC50: > 50 µM
Human STING (HAQ) [4]
  Kd: 2.48 µM

## NC(=O)c1ccc(OCc2c(C(=O)O)sc3c(Cl)cccc23)cc1 [Example 12, 3-((4-Carbamoylphenoxy)methyl)-7-chlorobenzo[b]thiophene-2-carboxylic acid]
Human STING (HAQ) [1]
  DSF huSTING (HAQ) ΔTm (° C.): 9 °C
huSTING (WT) [2]
  ΔTm at 100 µM: 3.29 °C
huSTING (HAQ)
  EC50: > 50 µM
huSTING (WT) [3]
  EC50: > 50 µM
Human STING (HAQ) [4]
  Kd: 5.95 µM

## NC(=O)c1ccc(OCc2c(C(=O)O)sc3cccc(C4CC4)c23)cc1 [Example 61, 3-((4-Carbamoylphenoxy)methyl)-4-cyclopropylbenzo[b]thiophene-2-carboxylic acid]
Human STING (HAQ) [1]
  DSF huSTING (HAQ) ΔTm (° C.): 14.62 °C
huSTING (WT) [2]
  ΔTm at 100 µM: 5.68 °C
huSTING (HAQ)
  EC50: 39.6 µM
huSTING (WT) [3]
  EC50: > 50 µM
Human STING (HAQ) [4]
  Kd: 0.83 µM

## NC(=O)c1cc(F)c(OCc2c(C(=O)O)sc3cccc(Cl)c23)c(Br)c1 [Example 71, 3-((2-Bromo-4-carbamoyl-6-fluorophenoxy)methyl)-4-chlorobenzo[b]thiophene-2-carboxylic acid]
Human STING (HAQ) [1]
  DSF huSTING (HAQ) ΔTm (° C.): 12.18 °C
huSTING (WT) [2]
  ΔTm at 100 µM: 5.11 °C
huSTING (HAQ)
  EC50: 21.4 µM
huSTING (WT) [3]
  EC50: 40.4 µM
Human STING (HAQ) [4]
  Kd: 2.12 µM

## N#Cc1cc(C(N)=O)ccc1OCc1c(C(=O)O)sc2cccc(Cl)c12 [Example 44, 3-((4-Carbamoyl-2-cyanophenoxy)methyl)-4-chlorobenzo[b]thiophene-2-carboxylic acid]
Human STING (HAQ) [1]
  DSF huSTING (HAQ) ΔTm (° C.): 7.64 °C
huSTING (WT) [2]
  ΔTm at 100 µM: 1.3 °C
Human STING (HAQ) [4]
  Kd: 7.95 µM

## CCOC(=O)c1sc2cccc(F)c2c1CCc1ccc(C(N)=O)cc1 [Example 87, Ethyl 3-(4-carbamoylphenethyl)-4-fluorobenzo[b]thiophene-2-carboxylate]
Human STING (HAQ) [1]
  DSF huSTING (HAQ) ΔTm (° C.): 0.54 °C
huSTING (HAQ)
  EC50: > 50 µM
huSTING (WT) [3]
  EC50: > 50 µM
Human STING (HAQ) [4]
  Kd: 3000 µM

## COc1cc(C(N)=O)cc(C)c1OCc1c(C(=O)O)sc2cccc(Cl)c12 [Example 73, 3-((4-carbamoyl-2-methoxy-6-methylphenoxy)methyl)-4-chlorobenzo[b]thiophene-2-carboxylic acid]
Human STING (HAQ) [1]
  DSF huSTING (HAQ) ΔTm (° C.): 1.79 °C
huSTING (WT) [2]
  ΔTm at 100 µM: -1.03 °C
Human STING (HAQ) [4]
  Kd: 67 µM

## N#Cc1cccc2sc(C(=O)O)c(COc3ccc(C(N)=O)cc3)c12 [Example 63, 3-((4-Carbamoylphenoxy)methyl)-4-cyanobenzo[b]thiophene-2-carboxylic acid]
Human STING (HAQ) [1]
  DSF huSTING (HAQ) ΔTm (° C.): 8.07 °C
huSTING (WT) [2]
  ΔTm at 100 µM: 1.88 °C
Human STING (HAQ) [4]
  Kd: 9.15 µM
